In one experiment the target is baNadD (Bacillus anthracis, UniProt C3L5T6). Briefly: biochemical. The conditions noted are these: for inhibition at 50 µM: read-out: INHIBITION (%) B. anthracis. The format is biochemical.
Another experiment has as its target ecNadD (Escherichia coli (strain K12), UniProt P0A752). Briefly: biochemical. Type of experiment: biochemical. The conditions noted are these: for IC50: IC50 ecNadD; for inhibition at 100 µM: read-out: INHIBITION (%) E. coli.

SMILES strings stand for the structures. Like-named read-outs stand apart in the source and are kept apart here.

Sequence of baNadD (C3L5T6 whole entry, looked up): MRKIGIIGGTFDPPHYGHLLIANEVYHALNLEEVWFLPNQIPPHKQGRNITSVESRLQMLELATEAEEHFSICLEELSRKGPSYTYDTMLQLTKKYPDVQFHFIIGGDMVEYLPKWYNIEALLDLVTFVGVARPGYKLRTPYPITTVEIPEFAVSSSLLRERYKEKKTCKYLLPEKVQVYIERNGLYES

`NS(=O)(=O)c1ccc(NC(=O)CSc2ccc3ccccc3n2)cc1` [compound 073]: on baNadD, the “[…]. anthracis” value is 0%. The “[…]. coli” value at ecNadD came to 12%.
Take `CCCCN(C(C)=O)c1ccc(C(=O)O)cc1` [compound 114]: the “[…]. anthracis” value on baNadD is 0%. For the same compound, the “[…]. coli” value at ecNadD was found to be 8%.
With `CCc1ccccc1N/C=C1\C(=O)Nc2ccccc21` [15_27], the IC50 at baNadD (IC50 baNadD) was above 200 µM. Further, at baNadD, the inhibition at 50 µM was 42%. Moreover, on ecNadD, the IC50 is above 200 µM and the inhibition at 100 µM came out at 8%.
Consider `COc1ccc(S(=O)(=O)Nc2ccc(CC#N)cc2)cc1C` [compound 170], for which the “[…]. anthracis” value at baNadD was 0%. In addition, the “[…]. coli” value at ecNadD came out at 3%.
Turning to `O=C1Nc2ccccc2/C1=C/Nc1ccccc1C(=O)O` [15_40], at baNadD, the inhibition at 50 µM stood at 0%. Moreover, the inhibition at 100 µM on ecNadD came to 1%.
In the case of `O=C(O)c1cccc(-n2nc(O)ccc2=O)c1` [compound 166], at baNadD, the “[…]. anthracis” value was found to be 19%. Moreover, the “[…]. coli” value at ecNadD turned out to be 4%.
For the compound `Nc1c(C(=O)Nc2cc(F)ccc2F)sc2nc(-c3cccs3)ccc12` [03_18], on baNadD, the “INHIBITION (%) B. anthracis” value came to 71% 14. The 50% inhibitory concentration (IC50) at baNadD (IC50 baNadD) was found to be 14 µM; on ecNadD, 35 µM. The “INHIBITION (%) E. coli” value at ecNadD was found to be 41% 35.
`Cc1cc(C)c(N/C=C2\C(=O)Nc3ccccc32)c(C)c1` [15_21]: the inhibition at 50 µM at baNadD came out at 30%. Besides, at ecNadD, the inhibition at 100 µM turned out to be 10%.
Regarding `NS(=O)(=O)c1cc(C(=O)OCC(=O)c2ccccc2)ccc1Cl` [compound 269], on baNadD, the “[…]. anthracis” value was 22%. In addition, the “[…]. coli” value at ecNadD was 0%.
Taken in the same sequence, the figures for `O=C(NCCNc1ccc([N+](=O)[O-])cc1)c1ccccc1Br` [compound 260] were 0% and 0%.
Regarding `O=S(=O)(Nc1ccc(Cl)cc1)c1ccc(Cl)s1` [compound 297], the “[…]. anthracis” value on baNadD was 0%. Also, on ecNadD, the “[…]. coli” value was determined as 0%.
As for `COc1cc(/C=N/c2ccc3[nH]c(=O)[nH]c3c2)ccc1OC(C)=O` [compound 012], the “[…]. anthracis” value at baNadD is 0%. Further, the “[…]. coli” value on ecNadD is 30%.
With `CC(=O)Nc1ccc(OCC(=O)Nc2ccccc2)cc1` [compound 125], the “[…]. anthracis” value at baNadD turned out to be 0%. Besides, the “[…]. coli” value on ecNadD is given as 7%.
The matching figures for `CC(=O)c1cccc(NS(=O)(=O)c2cccc(C(=O)O)c2)c1` [compound 240]: 0% and 0%.
Taken in the same sequence, the figures for `Cc1nnc(SCC(=O)Nc2ccc(Cl)cn2)s1` [compound 088] were 0% and 11%.
Taken in the same sequence, the figures for `O=C(COc1ccc(Cl)cc1)N/N=C/c1cccs1` [compound 080] were 24% and 11%.
Consider `O=C(O)[C@@H]1CSC(c2ccc(Cl)cc2Cl)N1` (some centres unmarked) [compound 041], for which the “[…]. anthracis” value on baNadD is recorded as 39%. Also, the “[…]. coli” value at ecNadD was determined as 19%.
Taken in the same sequence, the figures for `COC(=O)c1ccc(NC(=O)CNc2ccc(C(=O)O)cc2)cc1` [compound 258] were 0% and 0%.
As for `O=C(NCc1ccccc1)Nc1ccc2nsnc2c1` [compound 124], the “[…]. anthracis” value at baNadD was 0%. In addition, the “[…]. coli” value on ecNadD was 7%.
In the case of `Cc1ccc(S(=O)(=O)/N=C/c2cccnc2)cc1` [compound 092], the “[…]. anthracis” value at baNadD is recorded as 0%. In addition, at ecNadD, the “[…]. coli” value came to 10%.
Turning to `Nc1c(C(=O)Nc2ccc(Cl)cc2)sc2nc(-c3ccncc3)ccc12` [03_29], the inhibition at 50 µM on baNadD stood at 0%. The inhibition at 100 µM at ecNadD was found to be 0%.
For the compound `O=C1Nc2ccccc2/C1=C/Nc1ccc(Br)cc1` [15_09], the midpoint of inhibition at baNadD (IC50 baNadD), the IC50, lay at 111 µM. Further, the inhibition at 50 µM on baNadD turned out to be 60%. Also, on ecNadD, the IC50 was above 200 µM and the inhibition at 100 µM worked out at 13%.
Turning to `Cc1ccc(N/C=C2\C(=O)Nc3ccccc32)c(C)c1` [15_02], at baNadD, the inhibition at 50 µM came to 29%. Besides, the inhibition at 100 µM on ecNadD was determined as 20%.
As to `CSc1cccc(NS(=O)(=O)c2ccc(Cl)cc2)c1` [compound 306], the “[…]. anthracis” value on baNadD amounted to 0%. For the same compound, at ecNadD, the “[…]. coli” value came to 0%.
In the case of `COc1c(C)cc(Br)cc1C(=O)Nc1ccc(S(N)(=O)=O)cc1` [compound 032], the “[…]. anthracis” value at baNadD was determined as 8%. Also, the “[…]. coli” value on ecNadD is 21%.
For the compound `O=C(O)c1ccc(OCOc2ccc(C(=O)O)c(C(=O)O)c2)cc1C(=O)O` [compound 181], the “[…]. anthracis” value on baNadD was found to be 56%. For the same compound, the “[…]. coli” value on ecNadD came to 3%.
The matching figures for `O=C(Nc1ccc([N+](=O)[O-])cn1)c1sc2ccccc2c1Cl` [compound 186]: 9% and 2%.
Regarding `Cc1cc(OCC(=O)Nc2ccc(S(N)(=O)=O)cc2)ccc1Cl` [compound 099], the “[…]. anthracis” value on baNadD is 2%. Besides, on ecNadD, the “[…]. coli” value stood at 10%.
The matching figures for `O=C(O)CCNc1ccc(Br)cc1C(=O)O` [compound 087]: 0% and 11%.
Turning to `CSc1cccc(N/C=C2\C(=O)Nc3ccccc32)c1` [15_18], at baNadD, the inhibition at 50 µM was 24%. Moreover, the inhibition at 100 µM at ecNadD amounted to 11%.
Take `O=C(CCC(=O)Nc1ccc(F)cc1)N/N=C/c1ccc(O)cc1` [01_16]: on baNadD, the inhibition at 50 µM was 29%. Further, at ecNadD, the inhibition at 100 µM worked out at 42%.
As for `O=C(Nc1ncccc1Cl)c1ccc(Br)cc1` [compound 137], the “[…]. anthracis” value at baNadD is 7%. Also, the “[…]. coli” value on ecNadD is reported as 6%.
As for `Brc1ccc2ncnc(NCc3cccnc3)c2c1` [compound 225], the “[…]. anthracis” value at baNadD came out at 55%. For the same compound, at ecNadD, the “[…]. coli” value came out at 0%.
In the case of `COc1ccc(/C(C)=N/NC(=O)CNc2cc(Br)c(C)c(Br)c2)c(OC)c1` [01_11], the IC50 on baNadD (read-out: IC50 baNadD) was 30 µM. Further, the inhibition at 50 µM on baNadD was 86%. In addition, at ecNadD, the inhibition at 100 µM was 70%.
Consider `CSc1sc(C(=O)O)c(I)c1S(=O)(=O)C(C)C` [compound 158], for which, on baNadD, the “[…]. anthracis” value was determined as 36%. In addition, the “[…]. coli” value on ecNadD is recorded as 4%.
Consider `O=C(O)c1ccc(-c2ccc(C(=O)O)c(C(=O)O)c2)cc1C(=O)O` [compound 275], for which, on baNadD, the “[…]. anthracis” value is 0%. The “[…]. coli” value on ecNadD turned out to be 0%.
For the compound `C=CCNC(=O)c1cc(-c2ccc(Br)cc2)on1` [compound 301], the “[…]. anthracis” value on baNadD came out at 0%. Moreover, the “[…]. coli” value on ecNadD was determined as 0%.
As to `Cc1ccc2nc(NC(=S)NC(=O)c3cccs3)sc2c1` [compound 155], the “[…]. anthracis” value on baNadD was determined as 26%. Also, the “[…]. coli” value at ecNadD was 5%.
Taken in the same sequence, the figures for `NS(=O)(=O)c1ccc(CCNC(=S)Nc2ccc(S(N)(=O)=O)cc2)cc1` [compound 095] were 0% and 10%.
`Nc1c(C(=O)Nc2ccc(Cl)cc2Cl)sc2nc(-c3ccncc3)ccc12` [03_04]: the IC50 at baNadD (IC50 baNadD) and on ecNadD was 21 µM throughout. Moreover, at baNadD, the inhibition at 50 µM was 79%. Moreover, the inhibition at 100 µM on ecNadD amounted to 84%.
In the case of `CC(=O)NS(=O)(=O)c1ccc(/N=C2\C(=O)Nc3ccccc32)cc1` [compound 300], on baNadD, the “[…]. anthracis” value is reported as 0%. Moreover, the “[…]. coli” value on ecNadD came out at 0%.
`COC(=O)c1cc(O)c(C(=O)Nc2ccc(Cl)c(Cl)c2)s1` [compound 052]: the “[…]. anthracis” value at baNadD was determined as 24%. In addition, the “[…]. coli” value at ecNadD is recorded as 16%.
Take `O=C1Nc2ccccc2/C1=C/Nc1ccc(F)cc1` [15_06]: the inhibition at 50 µM on baNadD amounted to 49%. The inhibition at 100 µM on ecNadD came to 15%.

The term IC50 denotes the concentration that gives 50% inhibition. Usually inhibition stands for how much of the control response was suppressed.

The values are drawn from patent publication US8785499B2 (priority 2009, dated 2014).
